Laboratory results taken from patent publication US20160058759A1, “GLUTAMINASE INHIBITOR THERAPY” (Board of Regents, The University of Texas System, priority 2014, published 2016).

How the values were obtained:
[1] = system: NRF2/KEAP1 mutant NSCLC cell lines; assay: Glutathione level after GLS inhibitors; type: cell-based
Experimental: Cells were allowed to settle and attach overnight. Cells plated in triplicate for each concentration and control examined. […] Cells were incubated with compound or relevant controls for 24 hours. On Day 2, 24 hours after treatment, cells were analyzed by GSH-Glo (PromegaV6912) per manufacturer's instructions. Plates were read in luminescence mode on a PheraStarFS plate reader. Duplicate wells were plated and then stained with crystal violet in order to correct for differences in cell growth as described below.

[2] = system: NRF2/KEAP1 mutant NSCLC cell lines; assay: ROS after GLS inhibitors; type: cell-based
Experimental: One day prior to the experiment, A549 cells were seeded in 6 well dishes (250,000 cells per well). The day of the experiment, cells were treated with 0.01% DMSO or 1 μM IACS-011393 for 24 hours. The following day, an allocated well was treated with hydrogen peroxide for 20-30 minutes as a positive control for ROS generation. All wells were then stained with CM-H2DCFDA (5 μM, Life Technologies) for 30 minutes at 37° C., washed with 1× PBS, harvested by trypsinization, and re-suspended in 400 μl phenol-free RPMI medium. Cells were strained through a […] cell strainer and analyzed using a flow cytometer (LSR Fortessa).

| SMILES | glutathione [1] | ROS [2] |
| --- | --- | --- |
| O=C(Cc1ccccc1)Nc1nnc(CCSCCc2nnc(NC(=O)Cc3ccccc3)s2)s1 [BPTES, N,N′-(5,5′-(2,2′-thiobis(ethane-2,1-diyl))bis(1,3,4-thiadiazole-5,2-diyl))bis(2-phenylacetamide)] | reduction in glutathione | increase in ROS |
| O=C(Cc1cccc(OC(F)(F)F)c1)Nc1ccc(CCCCc2nnc(NC(=O)Cc3ccccn3)s2)nn1 [CB-839, 2-(pyridin-2-yl)-N-{5-[4-(6-{2-[3-(trifluoromethoxy)phenyl]acetamido}pyridazin-3-yl)butyl]-1,3,4-thiadiazol-2-yl}acetamide] | reduction in glutathione | increase in ROS |
| O=C(Cc1ccccn1)Nc1nnc(CCS(=O)(=O)CCc2nnc(NC(=O)Cc3ccccn3)s2)s1 [compound 13, N,N′-(5,5′-(2,2′-sulfonylbis(ethane-2,1-diyl))bis(1,3,4-thiadiazole-5,2-diyl))bis(2-(pyridin-2-yl)acetamide)] | reduction in glutathione | increase in ROS |
